# Reference: PubChem BioAssay (NCI)
#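 Following 48 hours of exposure in 96-well plates, responses at five concentrations were used to interpolate endpoints linearly. GI50 = concentration required for 50% inhibition of growth. The concentration for full growth arrest is given as TGI.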
# What was measured:
# Assay in all cases: growth of human tumour cells (NCI), 48 h
# 786-0 renal = test system: 786-0 renal
# A498 renal = test system: A498 renal
# A549 NSCLC = test system: A549 NSCLC
# ACHN renal = test system: ACHN renal
# COLO 205 colon = test system: COLO 205 colon
# DU-145 prostate = test system: DU-145 prostate
# EKVX NSCLC = test system: EKVX NSCLC
# HCT-116 colon = test system: HCT-116 colon
# HCT-15 colon = test system: HCT-15 colon
# HOP-62 NSCLC = test system: HOP-62 NSCLC
# HOP-92 NSCLC = test system: HOP-92 NSCLC
# HT29 colon = test system: HT29 colon
# KM12 colon = test system: KM12 colon
# LOX IMVI melanoma = test system: LOX IMVI melanoma
# M14 melanoma = test system: M14 melanoma
# MALME-3M melanoma = test system: MALME-3M melanoma
# MCF7 breast = test system: MCF7 breast
# MDA-MB-231 breast = test system: MDA-MB-231 breast
# MDA-MB-435 = test system: MDA-MB-435
# MDA-N = test system: MDA-N
# NCI-H23 lung = test system: NCI-H23 lung
# NCI/ADR-RES ovarian = test system: NCI/ADR-RES ovarian
# OVCAR-4 ovarian = test system: OVCAR-4 ovarian
# OVCAR-5 ovarian = test system: OVCAR-5 ovarian
# OVCAR-8 ovarian = test system: OVCAR-8 ovarian
# PC-3 prostate = test system: PC-3 prostate
# SF-295 CNS = test system: SF-295 CNS
# SF-539 CNS = test system: SF-539 CNS
# SK-MEL-2 melanoma = test system: SK-MEL-2 melanoma
# SK-MEL-28 melanoma = test system: SK-MEL-28 melanoma
# SK-MEL-5 melanoma = test system: SK-MEL-5 melanoma
# SK-OV-3 ovarian = test system: SK-OV-3 ovarian
# SN12C renal = test system: SN12C renal
# SNB-75 CNS = test system: SNB-75 CNS
# SW-620 colon = test system: SW-620 colon
# U251 CNS = test system: U251 CNS
# UACC-257 melanoma = test system: UACC-257 melanoma
# UACC-62 melanoma = test system: UACC-62 melanoma
# UO-31 renal = test system: UO-31 renal
# BT-549 breast = test system: BT-549 breast
# CAKI-1 renal = test system: CAKI-1 renal
# CCRF-CEM leukemia = test system: CCRF-CEM leukemia
# HCC-2998 colon = test system: HCC-2998 colon
# HL-60(TB) leukemia = test system: HL-60(TB) leukemia
# HS 578T breast = test system: HS 578T breast
# IGROV1 ovarian = test system: IGROV1 ovarian
# K-562 leukemia = test system: K-562 leukemia
# MOLT-4 leukemia = test system: MOLT-4 leukemia
# NCI-H226 lung = test system: NCI-H226 lung
# NCI-H460 lung = test system: NCI-H460 lung
# NCI-H522 lung = test system: NCI-H522 lung
# OVCAR-3 ovarian = test system: OVCAR-3 ovarian
# RPMI-8226 leukemia = test system: RPMI-8226 leukemia
# RXF 393 renal = test system: RXF 393 renal
# SF-268 CNS = test system: SF-268 CNS
# SNB-19 CNS = test system: SNB-19 CNS
# SR leukemia = test system: SR leukemia
# T-47D breast = test system: T-47D breast
# TK-10 renal = test system: TK-10 renal
compound,measurement,setting,value
Cc1csc2nc(-c3ccc(Cl)c([N+](=O)[O-])c3)c(/C=N/N=C(N)N)n12,TGI,786-0 renal,2930 nM
same,TGI,A498 renal,2850 nM
same,TGI,A549 NSCLC,3540 nM
same,TGI,ACHN renal,2940 nM
same,TGI,COLO 205 colon,2370 nM
same,TGI,DU-145 prostate,4860 nM
same,TGI,EKVX NSCLC,2930 nM
same,TGI,HCT-116 colon,3970 nM
same,TGI,HCT-15 colon,3020 nM
same,TGI,HOP-62 NSCLC,3410 nM
same,TGI,HOP-92 NSCLC,1380 nM
same,TGI,HT29 colon,3260 nM
same,TGI,KM12 colon,4750 nM
same,TGI,LOX IMVI melanoma,2970 nM
same,TGI,M14 melanoma,3380 nM
same,TGI,MALME-3M melanoma,4380 nM
same,TGI,MCF7 breast,3670 nM
same,TGI,MDA-MB-231 breast,3680 nM
same,TGI,MDA-MB-435,3130 nM
same,TGI,MDA-N,2690 nM
same,TGI,NCI-H23 lung,3290 nM
same,TGI,NCI/ADR-RES ovarian,5950 nM
same,TGI,OVCAR-4 ovarian,3400 nM
same,TGI,OVCAR-5 ovarian,2550 nM
same,TGI,OVCAR-8 ovarian,1570 nM
same,TGI,PC-3 prostate,2810 nM
same,TGI,SF-295 CNS,2780 nM
same,TGI,SF-539 CNS,2980 nM
same,TGI,SK-MEL-2 melanoma,2480 nM
same,TGI,SK-MEL-28 melanoma,3450 nM
same,TGI,SK-MEL-5 melanoma,2940 nM
same,TGI,SK-OV-3 ovarian,3240 nM
same,TGI,SN12C renal,3680 nM
same,TGI,SNB-75 CNS,3370 nM
same,TGI,SW-620 colon,1350 nM
same,TGI,U251 CNS,2970 nM
same,TGI,UACC-257 melanoma,1820 nM
same,TGI,UACC-62 melanoma,3300 nM
same,TGI,UO-31 renal,2330 nM
C[C@@H]1O[C@@H](O[C@H]2CC[C@@]3(C)[C@H](CCC4[C@@H]3C(O)C[C@]3(C)[C@@H](c5ccc(=O)oc5)CC[C@]43O)C2)[C@H](O)[C@H](O)[C@H]1O (stereo not given in full),GI50,786-0 renal,4.09 nM
same,TGI,786-0 renal,16.9 nM
same,GI50,A498 renal,8.59 nM
same,TGI,A498 renal,35.7 nM
same,GI50,A549 NSCLC,< 3.25 nM
same,TGI,A549 NSCLC,4.41 nM
same,GI50,ACHN renal,< 3.25 nM
same,TGI,ACHN renal,8.03 nM
same,GI50,BT-549 breast,< 3.25 nM
same,TGI,BT-549 breast,4.48 nM
same,GI50,CAKI-1 renal,4.2 nM
same,TGI,CAKI-1 renal,15.4 nM
same,GI50,CCRF-CEM leukemia,< 3.25 nM
same,TGI,CCRF-CEM leukemia,7.6 nM
same,GI50,COLO 205 colon,6.64 nM
same,TGI,COLO 205 colon,13 nM
same,GI50,DU-145 prostate,3.55 nM
same,TGI,DU-145 prostate,5.16 nM
same,GI50,EKVX NSCLC,3.79 nM
same,TGI,EKVX NSCLC,7.66 nM
same,GI50,HCC-2998 colon,7.5 nM
same,TGI,HCC-2998 colon,16.8 nM
same,GI50,HCT-116 colon,< 3.25 nM
same,TGI,HCT-116 colon,5.44 nM
same,GI50,HCT-15 colon,7.86 nM
same,TGI,HCT-15 colon,20.9 nM
same,GI50,HL-60(TB) leukemia,4.9 nM
same,TGI,HL-60(TB) leukemia,7.68 nM
same,GI50,HOP-62 NSCLC,3.89 nM
same,TGI,HOP-62 NSCLC,5.7 nM
same,GI50,HOP-92 NSCLC,7.86 nM
same,TGI,HOP-92 NSCLC,21.6 nM
same,GI50,HS 578T breast,< 3.25 nM
same,TGI,HS 578T breast,65.9 nM
same,GI50,HT29 colon,4.81 nM
same,TGI,HT29 colon,9.75 nM
same,GI50,IGROV1 ovarian,6.5 nM
same,TGI,IGROV1 ovarian,23.7 nM
same,GI50,K-562 leukemia,9.84 nM
same,TGI,K-562 leukemia,879 nM
same,GI50,KM12 colon,6.96 nM
same,TGI,KM12 colon,15.7 nM
same,GI50,LOX IMVI melanoma,5.19 nM
same,TGI,LOX IMVI melanoma,10.1 nM
same,GI50,M14 melanoma,6.09 nM
same,TGI,M14 melanoma,14.8 nM
same,GI50,MALME-3M melanoma,6.59 nM
same,TGI,MALME-3M melanoma,16.6 nM
same,GI50,MCF7 breast,8.28 nM
same,TGI,MCF7 breast,65.9 nM
same,GI50,MDA-MB-231 breast,11.2 nM
same,TGI,MDA-MB-231 breast,36.9 nM
same,GI50,MDA-MB-435,6.33 nM
same,TGI,MDA-MB-435,13.1 nM
same,GI50,MOLT-4 leukemia,< 3.25 nM
same,GI50,NCI-H226 lung,6.08 nM
same,TGI,NCI-H226 lung,10.7 nM
same,GI50,NCI-H23 lung,< 3.25 nM
same,TGI,NCI-H23 lung,6.72 nM
same,GI50,NCI-H460 lung,< 3.25 nM
same,TGI,NCI-H460 lung,5.09 nM
same,GI50,NCI-H522 lung,< 3.25 nM
same,TGI,NCI-H522 lung,3.5 nM
same,GI50,NCI/ADR-RES ovarian,< 3.25 nM
same,TGI,NCI/ADR-RES ovarian,5.78 nM
same,GI50,OVCAR-3 ovarian,4.31 nM
same,TGI,OVCAR-3 ovarian,5.97 nM
same,GI50,OVCAR-4 ovarian,< 3.25 nM
same,GI50,OVCAR-5 ovarian,5.83 nM
same,TGI,OVCAR-5 ovarian,< 11.3 nM
same,GI50,OVCAR-8 ovarian,4.15 nM
same,TGI,OVCAR-8 ovarian,8.01 nM
same,GI50,PC-3 prostate,4.62 nM
same,TGI,PC-3 prostate,29.6 nM
same,GI50,RPMI-8226 leukemia,7.92 nM
same,TGI,RPMI-8226 leukemia,27.8 nM
same,GI50,RXF 393 renal,6.4 nM
same,TGI,RXF 393 renal,19.4 nM
same,GI50,SF-268 CNS,< 3.25 nM
same,TGI,SF-268 CNS,5.02 nM
same,GI50,SF-295 CNS,6.64 nM
same,TGI,SF-295 CNS,29.1 nM
same,GI50,SF-539 CNS,4.21 nM
same,TGI,SF-539 CNS,8.97 nM
same,GI50,SK-MEL-2 melanoma,7.41 nM
same,TGI,SK-MEL-2 melanoma,16.3 nM
same,GI50,SK-MEL-28 melanoma,6.2 nM
same,TGI,SK-MEL-28 melanoma,11.9 nM
same,GI50,SK-MEL-5 melanoma,5.61 nM
same,TGI,SK-MEL-5 melanoma,10.7 nM
same,GI50,SK-OV-3 ovarian,5.02 nM
same,TGI,SK-OV-3 ovarian,9.87 nM
same,GI50,SN12C renal,< 3.25 nM
same,TGI,SN12C renal,758 nM
same,GI50,SNB-19 CNS,10.8 nM
same,TGI,SNB-19 CNS,35.7 nM
same,GI50,SNB-75 CNS,4.7 nM
same,TGI,SNB-75 CNS,10.7 nM
same,GI50,SR leukemia,3.88 nM
same,TGI,SR leukemia,10.9 nM
same,GI50,SW-620 colon,4.89 nM
same,TGI,SW-620 colon,12.3 nM
same,GI50,T-47D breast,< 3.25 nM
same,TGI,T-47D breast,24.1 nM
same,GI50,TK-10 renal,< 3.25 nM
same,TGI,TK-10 renal,5.55 nM
same,GI50,U251 CNS,5.2 nM
same,TGI,U251 CNS,9.74 nM
same,GI50,UACC-257 melanoma,5.89 nM
same,TGI,UACC-257 melanoma,12.1 nM
same,GI50,UACC-62 melanoma,6.98 nM
same,TGI,UACC-62 melanoma,15.3 nM
same,GI50,UO-31 renal,5.77 nM
same,TGI,UO-31 renal,15 nM
N#Cc1c(N)[nH]c2ccc(Sc3ccccc3)cc12,TGI,786-0 renal,8100 nM
same,TGI,A498 renal,2040 nM
same,TGI,A549 NSCLC,12100 nM
same,TGI,ACHN renal,16000 nM
same,TGI,BT-549 breast,19500 nM
same,TGI,CAKI-1 renal,9270 nM
same,TGI,CCRF-CEM leukemia,13800 nM
same,TGI,COLO 205 colon,1340 nM
same,TGI,DU-145 prostate,15500 nM
same,TGI,EKVX NSCLC,11700 nM
same,TGI,HCC-2998 colon,17300 nM
same,TGI,HCT-116 colon,8340 nM
same,TGI,HCT-15 colon,14900 nM
same,TGI,HL-60(TB) leukemia,1920 nM
same,TGI,HOP-62 NSCLC,20500 nM
same,TGI,HOP-92 NSCLC,19800 nM
same,TGI,HS 578T breast,25800 nM
same,TGI,HT29 colon,9010 nM
same,TGI,IGROV1 ovarian,8360 nM
same,TGI,K-562 leukemia,9710 nM
same,TGI,KM12 colon,10700 nM
same,TGI,LOX IMVI melanoma,7560 nM
same,TGI,M14 melanoma,3500 nM
same,TGI,MCF7 breast,16600 nM
same,TGI,MDA-MB-231 breast,15400 nM
same,TGI,MDA-MB-435,146 nM
same,TGI,MOLT-4 leukemia,11200 nM
same,TGI,NCI-H226 lung,1290 nM
same,TGI,NCI-H23 lung,10300 nM
same,TGI,NCI-H460 lung,21600 nM
same,TGI,NCI-H522 lung,3210 nM
same,TGI,NCI/ADR-RES ovarian,10200 nM
same,TGI,OVCAR-3 ovarian,15800 nM
same,TGI,OVCAR-4 ovarian,21600 nM
same,TGI,OVCAR-5 ovarian,18000 nM
same,TGI,OVCAR-8 ovarian,12000 nM
same,TGI,PC-3 prostate,15800 nM
same,TGI,RPMI-8226 leukemia,8650 nM
same,TGI,RXF 393 renal,5480 nM
same,TGI,SF-268 CNS,15400 nM
same,TGI,SF-295 CNS,4960 nM
same,TGI,SF-539 CNS,694 nM
same,TGI,SK-MEL-2 melanoma,17500 nM
same,TGI,SK-MEL-28 melanoma,17400 nM
same,TGI,SK-MEL-5 melanoma,4430 nM
same,TGI,SK-OV-3 ovarian,20300 nM
same,TGI,SN12C renal,6640 nM
same,TGI,SNB-19 CNS,17200 nM
same,TGI,SNB-75 CNS,23000 nM
same,TGI,SR leukemia,6250 nM
same,TGI,SW-620 colon,16900 nM
same,TGI,T-47D breast,23000 nM
same,TGI,TK-10 renal,20800 nM
same,TGI,U251 CNS,17500 nM
same,TGI,UACC-257 melanoma,29500 nM
same,TGI,UACC-62 melanoma,2500 nM
same,TGI,UO-31 renal,13900 nM
